Legend:
Experiment in all cases: relative viability (nuclei count vs DMSO), 5 days (fraction); higher = more cells survive
NCI-H650 = system: NCI-H650
Outline: (§1)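 Relative viability divides the nuclei count in treated wells by that in vehicle wells. Lung cancer cell lines were seeded in 1536-well plates, dosed by pin tool the next day, and fixed and stained after 5 days in one step with final 0.05% Triton X-100, 1% formaldehyde and 1 ug/ml Hoechst. Dosing was a single drug or a fixed anchor-drug dose plus five library-drug doses (not always all listed) in √10 steps, and values are medians of duplicate plates imaged at 4×.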

SW 1573 = system: SW 1573
Outline: as §1

LOU-NH91 = system: LOU-NH91
Outline: as §1

NCI-H1975 = system: NCI-H1975
Outline: as §1

NCI-H1437 = system: NCI-H1437
Outline: as §1

NCI-H2170 = system: NCI-H2170
Outline: as §1

NCI-H2085 = system: NCI-H2085
Outline: as §1

HCC-44 = system: HCC-44
Outline: as §1

COR-L 105 = system: COR-L 105
Outline: as §1

EKVX = system: EKVX
Outline: as §1

201T = system: 201T
Outline: as §1

Cc1sc2c(c1C)C(c1ccc(Cl)cc1)=N[C@@H](CC(=O)OC(C)(C)C)c1nnc(C)n1-2 [JQ1] + N=C(N)NC(=N)NCCc1ccccc1 [Phenformin] (partner 250 µM)
relative viability (NCI-H650; first compound 0.04 µM): 0.418
relative viability (NCI-H650; first compound 0.1265 µM): 0.358
relative viability (NCI-H650; first compound 0.4 µM): 0.313
relative viability (NCI-H650; first compound 1.265 µM): 0.273
relative viability (NCI-H650; first compound 4 µM): 0.25
relative viability (SW 1573; first compound 0.04 µM): 0.331
relative viability (SW 1573; first compound 0.1265 µM): 0.304
relative viability (SW 1573; first compound 0.4 µM): 0.402
relative viability (SW 1573; first compound 1.265 µM): 0.231
relative viability (SW 1573; first compound 4 µM): 0.233
relative viability (LOU-NH91; first compound 0.04 µM): 0.735
relative viability (LOU-NH91; first compound 0.1265 µM): 0.555
relative viability (LOU-NH91; first compound 0.4 µM): 0.384
relative viability (LOU-NH91; first compound 1.265 µM): 0.328
relative viability (LOU-NH91; first compound 4 µM): 0.326
relative viability (NCI-H1975; first compound 0.04 µM): 0.41
relative viability (NCI-H1975; first compound 0.1265 µM): 0.31
relative viability (NCI-H1975; first compound 0.4 µM): 0.381
relative viability (NCI-H1975; first compound 1.265 µM): 0.299
relative viability (NCI-H1975; first compound 4 µM): 0.297
relative viability (NCI-H1437; first compound 0.04 µM): 0.274
relative viability (NCI-H1437; first compound 0.1265 µM): 0.267
relative viability (NCI-H1437; first compound 0.4 µM): 0.279
relative viability (NCI-H1437; first compound 1.265 µM): 0.222
relative viability (NCI-H1437; first compound 4 µM): 0.271
relative viability (NCI-H2170; first compound 0.04 µM): 0.408
relative viability (NCI-H2170; first compound 0.1265 µM): 0.394
relative viability (NCI-H2170; first compound 0.4 µM): 0.402
relative viability (NCI-H2170; first compound 1.265 µM): 0.354
relative viability (NCI-H2170; first compound 4 µM): 0.315
relative viability (NCI-H2085; first compound 0.04 µM): 0.712
relative viability (NCI-H2085; first compound 0.1265 µM): 0.611
relative viability (NCI-H2085; first compound 0.4 µM): 0.552
relative viability (NCI-H2085; first compound 1.265 µM): 0.393
relative viability (NCI-H2085; first compound 4 µM): 0.426
relative viability (HCC-44; first compound 0.04 µM): 0.201
relative viability (HCC-44; first compound 0.1265 µM): 0.184
relative viability (HCC-44; first compound 0.4 µM): 0.161
relative viability (HCC-44; first compound 1.265 µM): 0.125
relative viability (HCC-44; first compound 4 µM): 0.111
relative viability (COR-L 105; first compound 0.04 µM): 0.432
relative viability (COR-L 105; first compound 0.1265 µM): 0.239
relative viability (COR-L 105; first compound 0.4 µM): 0.217
relative viability (COR-L 105; first compound 1.265 µM): 0.22
relative viability (COR-L 105; first compound 4 µM): 0.289
relative viability (EKVX; first compound 0.04 µM): 0.257
relative viability (EKVX; first compound 0.1265 µM): 0.257
relative viability (EKVX; first compound 0.4 µM): 0.27
relative viability (EKVX; first compound 1.265 µM): 0.243
relative viability (EKVX; first compound 4 µM): 0.218
relative viability (201T; first compound 0.04 µM): 0.47
relative viability (201T; first compound 0.1265 µM): 0.415
relative viability (201T; first compound 0.4 µM): 0.408
relative viability (201T; first compound 1.265 µM): 0.377
relative viability (201T; first compound 4 µM): 0.344

Source: the supplement of paper PMC10307832
